Measurements published in US10364314B2, “Compound, resin, material for forming underlayer film for lithography, composition for forming underlayer film for lithography, underlayer film for lithography, resist pattern forming method, circuit pattern forming method, and purification method” (Mitsubishi Gas Chemical Company, Inc., priority 2015, dated 2019).

Assay: Solubility in PGME and PGMEA at 23° C.
Type: physicochemical
Method: The amount of each compound dissolved in 1-methoxy-2-propanol (PGME) and propylene glycol monomethyl ether acetate (PGMEA) was measured at 23° C., and the results were evaluated according to the following criteria.
Evaluation A: 10% by mass or more
Evaluation B: 5% by mass or more and less than 10% by mass
Evaluation C: less than 5% by mass

Compound	Evaluation of the solubility in PGME and PGMEA	solubility in PGME and PGMEA
Oc1ccc2ccc3c(c2c1)C(c1c[nH]cn1)c1c(ccc2ccc(O)cc12)O3 [IMX-1]	A (10% by mass or more)	≥ 10 % by mass
Oc1ccc(-c2ccc(O)c(C(c3c[nH]cn3)c3cc(-c4ccc(O)cc4)ccc3O)c2)cc1 [IMX-3]	A (10% by mass or more)	≥ 10 % by mass
Oc1ccc2c3c(ccc2c1)Oc1ccc2cc(O)ccc2c1C3c1c[nH]c(-c2ccccc2)n1 [IMX-4]	B (5% by mass or more and less than 10% by mass)	≥ 5 % by mass

Continued, values first:

Evaluation of the solubility in PGME and PGMEA	solubility in PGME and PGMEA	Compound
A (10% by mass or more)	≥ 10 % by mass	Oc1ccc2c3c(ccc2c1)Oc1ccc2cc(O)ccc2c1C3c1c[nH]cn1 [IMX-2]
A (10% by mass or more)	≥ 10 % by mass	CCCCc1nc(C2c3c(ccc4cc(O)ccc34)Oc3ccc4cc(O)ccc4c32)c(Cl)[nH]1 [IMX-5]
